Assay results from article PMC3623016 (Journal of biomolecular screening, 2012).
Values joined by “and” are separate entries in the source; they are usually repeats but may differ in a detail not shown here. Equal values may be shown once.

Columns and labels:
Ig-MXP3 cells = assay: Direct cytotoxicity; format: cell-based
ABCG2 = molecular target: T1, ABCG2 (Homo sapiens, UniProt Q9UNQ0); assay: JC-1 efflux inhibition dose-response, flow cytometry, Ig-MXP3 cells; format: cell-based; conditions: quotient of average ABCB1 IC50 and average ABCG2 IC50, JC-1 efflux assay
T1 sequence (Q9UNQ0 1-655): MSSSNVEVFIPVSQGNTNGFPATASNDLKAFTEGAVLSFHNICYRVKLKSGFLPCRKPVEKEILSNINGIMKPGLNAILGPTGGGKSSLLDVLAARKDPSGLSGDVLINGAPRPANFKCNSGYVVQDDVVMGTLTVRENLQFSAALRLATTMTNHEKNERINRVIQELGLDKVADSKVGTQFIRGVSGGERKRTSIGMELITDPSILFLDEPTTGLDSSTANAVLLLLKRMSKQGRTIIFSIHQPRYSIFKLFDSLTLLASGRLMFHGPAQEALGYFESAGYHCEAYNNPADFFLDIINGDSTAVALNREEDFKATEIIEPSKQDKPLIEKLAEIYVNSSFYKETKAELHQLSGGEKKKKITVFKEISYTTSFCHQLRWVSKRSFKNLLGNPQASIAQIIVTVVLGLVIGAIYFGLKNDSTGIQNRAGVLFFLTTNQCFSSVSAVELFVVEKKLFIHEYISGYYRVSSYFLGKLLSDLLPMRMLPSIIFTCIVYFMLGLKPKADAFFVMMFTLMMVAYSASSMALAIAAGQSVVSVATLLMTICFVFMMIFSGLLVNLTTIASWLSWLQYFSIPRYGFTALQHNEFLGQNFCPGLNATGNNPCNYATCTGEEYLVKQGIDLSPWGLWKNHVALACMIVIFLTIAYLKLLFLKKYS

| Molecule | ABCG2 TD50 (Ig-MXP3 cells) | ABCB1 TD50 (Jurkat-DNR cells) | ∼Fold G2 Selective (ABCG2) |
| --- | --- | --- | --- |
| O=C(NCCCN1CCOCC1)c1cnn2c(-c3ccccc3)cc(-c3ccccc3)nc12 [Compound 6, reversan, reference compound] | >100 µM | 7.04 µM | – |
| O=C(c1ccco1)N1CCN(c2cc(-c3ccccc3)nc3cc(-c4cccc(Cl)c4)nn23)CC1 [Compound 8] | 6.00 µM | 6.77 µM | 6.4 fold |
| Cc1nc2cc(-c3cccc(Cl)c3)nn2c(N2CCN(C(=O)c3ccco3)CC2)c1C [Compound 9] | 47.40 µM | >100 µM | 3.2 fold |
| Cc1cc(N2CCN(C(=O)c3ccco3)CC2)n2nc(-c3cccc(Cl)c3)cc2n1 [Compound 10] | – | – | 2.1 fold |
| O=C(c1ccoc1)N1CCN(c2cc(-c3ccccc3)nc3cc(-c4cccc(Cl)c4)nn23)CC1 [Compound 11] | – | – | 7 fold and 7.2 fold |
| O=C(c1ccsc1)N1CCN(c2cc(-c3ccccc3)nc3cc(-c4cccc(Cl)c4)nn23)CC1 [Compound 12] | – | – | 2.8 fold |
| O=C(c1ccccc1)N1CCN(c2cc(-c3ccccc3)nc3cc(-c4cccc(Cl)c4)nn23)CC1 [Compound 13] | – | – | 2.4 fold |
| COc1ccccc1C(=O)N1CCN(c2cc(-c3ccccc3)nc3cc(-c4cccc(Cl)c4)nn23)CC1 [Compound 14] | – | – | 1.0 fold |
| COc1cccc(C(=O)N2CCN(c3cc(-c4ccccc4)nc4cc(-c5cccc(Cl)c5)nn34)CC2)c1 [Compound 15] | >100 µM | >100 µM | 0.6 fold |
| COc1ccc(C(=O)N2CCN(c3cc(-c4ccccc4)nc4cc(-c5cccc(Cl)c5)nn34)CC2)cc1 [Compound 16] | – | – | 1.0 fold |
| O=C(c1ccccc1Cl)N1CCN(c2cc(-c3ccccc3)nc3cc(-c4cccc(Cl)c4)nn23)CC1 [Compound 17] | – | – | 1.4 fold |
| O=C(c1cccc(Cl)c1)N1CCN(c2cc(-c3ccccc3)nc3cc(-c4cccc(Cl)c4)nn23)CC1 [Compound 18] | – | – | 1.4 fold |
| O=C(c1ccc(Cl)cc1)N1CCN(c2cc(-c3ccccc3)nc3cc(-c4cccc(Cl)c4)nn23)CC1 [Compound 19] | – | – | 0.9 fold |
| O=C(c1cccnc1)N1CCN(c2cc(-c3ccccc3)nc3cc(-c4cccc(Cl)c4)nn23)CC1 [Compound 20] | 10.30 µM | 4.72 µM | 2.5 fold |
| O=C(c1ccncc1)N1CCN(c2cc(-c3ccccc3)nc3cc(-c4cccc(Cl)c4)nn23)CC1 [Compound 21] | 28.30 µM | 10.90 µM | 1.1 fold |
| O=C(C1CCCCC1)N1CCN(c2cc(-c3ccccc3)nc3cc(-c4cccc(Cl)c4)nn23)CC1 [Compound 22] | – | – | 1.2 fold |
| CC(=O)N1CCN(c2cc(-c3ccccc3)nc3cc(-c4cccc(Cl)c4)nn23)CC1 [Compound 23] | – | – | 0.9 fold |
| O=C(c1ccoc1)N1CCN(c2cc(-c3ccccc3F)nc3cc(-c4cccc(Cl)c4)nn23)CC1 [Compound 26] | – | – | 2.4 fold |
| O=C(c1ccoc1)N1CCN(c2cc(-c3ccc(F)cc3)nc3cc(-c4cccc(Cl)c4)nn23)CC1 [Compound 27] | – | – | 2.3 fold |
| COc1cccc(-c2cc(N3CCN(C(=O)c4ccoc4)CC3)n3nc(-c4cccc(Cl)c4)cc3n2)c1 [Compound 28] | – | – | 1.9 fold |
| COc1ccc(-c2cc(N3CCN(C(=O)c4ccoc4)CC3)n3nc(-c4cccc(Cl)c4)cc3n2)cc1 [Compound 29] | – | – | 2.4 fold |
| C#Cc1cc(N2CCN(C(=O)c3ccoc3)CC2)n2nc(-c3cccc(Cl)c3)cc2n1 [Compound 32] | – | – | 4.3 fold |
| O=C(c1ccoc1)N1CCN(c2cc(-c3ccccc3)nc3cc(-c4ccc(Br)cc4)nn23)CC1 [Compound 33] | – | – | 1.7 fold |

| Molecule | ABCG2 TD50 (Ig-MXP3 cells) | ABCB1 TD50 (Jurkat-DNR cells) | ∼Fold G2 Selective (ABCG2) |
| --- | --- | --- | --- |
| COc1cccc(-c2cc3nc(-c4ccccc4)cc(N4CCN(C(=O)c5ccoc5)CC4)n3n2)c1 [Compound 35] | – | – | 2.0 fold |
| COc1ccccc1-c1cc2nc(-c3ccccc3)cc(N3CCN(C(=O)c4ccco4)CC3)n2n1 [Compound 37] | – | – | 2.9 fold |
| COc1cccc(-c2cc3nc(-c4ccccc4)cc(N4CCN(C(=O)c5ccco5)CC4)n3n2)c1 [Compound 38] | – | – | 3.4 fold |
| CCCN(CCc1ccccc1)C(=O)[C@@H]1OC(C(=O)O)=C[C@H](O)[C@H]1NC(C)=O [Compound 39] | – | – | 2.7 fold |
| Cc1cccc(-c2cc3nc(-c4ccccc4)cc(N4CCN(C(=O)c5ccco5)CC4)n3n2)c1 [Compound 40] | – | – | 1.6 fold |
| COc1ccccc1-c1cc2nc(-c3ccccc3)cc(N3CCN(C(=O)c4ccccc4)CC3)n2n1 [Compound 41] | – | – | 3.0 fold |
| O=C(c1ccccc1)N1CCN(c2cc(-c3ccccc3)nc3cc(-c4cccc(F)c4)nn23)CC1 [Compound 42] | – | – | 1.9 fold |
| O=C(c1ccccc1)N1CCN(c2cc(-c3ccccc3)nc3cc(-c4ccc(F)cc4)nn23)CC1 [Compound 43] | – | – | 2.0 fold |
| COc1ccc(-c2cc(N3CCN(C(=O)c4ccoc4)CC3)n3nc(-c4ccccc4)cc3n2)cc1 [Compound 45] | – | – | 1.9 fold |
| O=C(c1ccoc1)N1CCN(c2cc(-c3ccccc3F)nc3cc(-c4ccccc4)nn23)CC1 [Compound 46] | – | – | 10.0 fold |
| O=C(c1ccoc1)N1CCN(c2cc(-c3cccc(F)c3)nc3cc(-c4ccccc4)nn23)CC1 [Compound 47] | – | – | 4.2 fold |
| O=C(c1ccoc1)N1CCN(c2cc(-c3ccc(F)cc3)nc3cc(-c4ccccc4)nn23)CC1 [Compound 48] | – | – | 1.8 fold |
| CC(C)(C)c1cc(N2CCN(C(=O)c3ccoc3)CC2)n2nc(-c3ccccc3)cc2n1 [Compound 49] | – | – | 0.5 fold |
| O=C(c1ccoc1)N1CCN(c2cc(-c3ccco3)nc3cc(-c4ccco4)nn23)CC1 [Compound 52] | >100 µM | 1.93 µM | – |
| O=C(c1ccoc1)N1CCN(c2cc(-c3ccco3)nc3cc(-c4cccc(Cl)c4)nn23)CC1 [Compound 53] | 10.80 µM | 8.53 µM | – |
| COc1cccc(-c2cc3nc(-c4ccco4)cc(N4CCN(C(=O)c5ccoc5)CC4)n3n2)c1 [Compound 56] | >100 µM | 5.52 µM | – |
| COc1ccc(-c2cc3nc(-c4ccco4)cc(N4CCN(C(=O)c5ccoc5)CC4)n3n2)cc1 [Compound 57] | >100 µM | >100 µM | – |
| O=C(c1ccoc1)N1CCN(c2cc(-c3ccoc3)nc3cc(-c4ccccc4)nn23)CC1 [Compound 61] | 18.30 µM | 7.33 µM | – |
| CC(=O)N1CCN(c2cc(-c3ccco3)nc3cc(-c4ccccc4)nn23)CC1 [Compound 74] | >100 µM | 10.10 µM | – |
| CC(=O)N1CCN(c2cc(-c3ccco3)nc3cc(-c4cccc(Cl)c4)nn23)CC1 [Compound 87] | >100 µM | 17.60 µM | – |
| COc1cccc(-c2cc3nc(-c4ccco4)cc(N4CCN(C(C)=O)CC4)n3n2)c1 [Compound 88] | >100 µM | 49.30 µM | – |
| XR9051 [Compound 2, reference compound] | 21.40 µM | 1.97 µM | – |
